From ChEMBL document CHEMBL2074489, “Human organic anion transporter 3 (hOAT3) can operate as an exchanger and mediate secretory urate flux” (Cell Physiol Biochem, 2003)

These compounds were tested against T1, Organic anion transporter 3 (Homo sapiens, UniProt Q8TCC7) (assay: TP_TRANSPORTER: inhibition of Estrone sulfate in Xenopus laevis oocytes). Details: not given.
T1 sequence (Q8TCC7 whole entry): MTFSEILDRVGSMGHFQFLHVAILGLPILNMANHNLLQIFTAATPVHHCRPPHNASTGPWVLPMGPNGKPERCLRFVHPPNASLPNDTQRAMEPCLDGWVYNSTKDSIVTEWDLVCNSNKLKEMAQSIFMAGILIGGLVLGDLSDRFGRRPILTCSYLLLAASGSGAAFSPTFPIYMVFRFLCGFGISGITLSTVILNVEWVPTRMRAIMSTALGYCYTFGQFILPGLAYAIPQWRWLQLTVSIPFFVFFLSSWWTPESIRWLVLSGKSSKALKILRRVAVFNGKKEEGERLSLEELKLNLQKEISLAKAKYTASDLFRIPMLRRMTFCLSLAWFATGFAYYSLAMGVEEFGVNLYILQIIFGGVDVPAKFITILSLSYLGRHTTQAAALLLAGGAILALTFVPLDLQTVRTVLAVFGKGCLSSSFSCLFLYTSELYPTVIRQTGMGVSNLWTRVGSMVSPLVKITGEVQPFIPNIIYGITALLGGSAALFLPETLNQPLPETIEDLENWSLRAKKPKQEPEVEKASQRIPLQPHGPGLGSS
Type: functional, cell-based, Oocyte

Ki [µM]	SMILES
275	O=c1[nH]c(=O)c2[nH]c(=O)[nH]c2[nH]1 [URIC ACID]

What follows are compounds tested against T1, Organic anion transporter 3 (assay: TP_TRANSPORTER: trans-stimulation in Xenopus laevis oocytes). Details: oocyte.
Type: functional, cell-based

SMILES	Activity
O=C(O)CCC(=O)C(=O)O [ALPHA-KETOGLUTARIC ACID]	substrate []
CN/C(=N/CCSCc1nc[nH]c1C)NC#N [CIMETIDINE]	substrate []

Now from value to compound:

Activity	SMILES
substrate []	Nc1ccc(C(=O)NCC(=O)O)cc1 [AMINOHIPPURIC ACID]
substrate []	O=C(O)CCCC(=O)O [GLUTARATE]
substrate []	O=c1[nH]c(=O)c2[nH]c(=O)[nH]c2[nH]1 [URIC ACID]
